Measurements published in the supplement of paper PMC10307832.

Assays:
Assay in all cases: relative viability (nuclei count vs DMSO), 5 days (fraction); higher = more cells survive
[1] = compound: C1=CC2=C(C=C(C(=C2N=C1)O)N=NC3=CC4=C(C=C3)C=C(C=C4)S(=O)(=O)O)S(=O)(=O)O + Cc1nc(NC(=O)N2CCC[C@H]2C(N)=O)sc1-c1ccnc(C(C)(C)C(F)(F)F)c1 [Alpelisib] (partner 2 µM)
Method in brief: (§1)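 After 5 days of treatment, lung cancer cells in 1536-well plates were fixed and stained in a single step (final 0.05% Triton X-100, 1% formaldehyde, 1 ug/ml Hoechst) and their nuclei counted on 4× images. Treatment had been applied by pin tool the day after seeding as one drug alone or as a fixed anchor-drug dose with five library-drug doses (not always all listed) in √10 steps. Relative viability is the nuclei count of treated wells divided by that of vehicle wells, and values are medians of duplicate plates.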

AT-7519 + Phenformin = compound: O=C(NC1CCNCC1)c1n[nH]cc1NC(=O)c1c(Cl)cccc1Cl [AT-7519] + N=C(N)NC(=N)NCCc1ccccc1 [Phenformin] (partner 250 µM)
Method in brief: as §1

AT-7519 + Foretinib = compound: O=C(NC1CCNCC1)c1n[nH]cc1NC(=O)c1c(Cl)cccc1Cl [AT-7519] + COc1cc2c(Oc3ccc(NC(=O)C4(C(=O)Nc5ccc(F)cc5)CC4)cc3F)ccnc2cc1OCCCN1CCOCC1 [Foretinib] (partner 0.25 µM)
Method in brief: as §1

[2] = compound: C1=CC2=C(C=C(C(=C2N=C1)O)N=NC3=CC4=C(C=C3)C=C(C=C4)S(=O)(=O)O)S(=O)(=O)O + Cc1nc(Nc2ncc(C(=O)Nc3c(C)cccc3Cl)s2)cc(N2CCN(CCO)CC2)n1 [Dasatinib] (partner 0.075 µM)
Method in brief: as §1

| Cell Line | relative viability ([1]; first compound 0.08 µM) | relative viability ([1]; first compound 0.253 µM) | relative viability ([1]; first compound 0.8 µM) | relative viability ([1]; first compound 2.53 µM) | relative viability ([1]; first compound 8 µM) | relative viability (AT-7519 + Phenformin; first compound 0.01 µM) | relative viability (AT-7519 + Phenformin; first compound 0.03162 µM) | relative viability (AT-7519 + Phenformin; first compound 0.3162 µM) | relative viability (AT-7519 + Phenformin; first compound 1 µM) | relative viability (AT-7519 + Foretinib; first compound 0.01 µM) | relative viability (AT-7519 + Foretinib; first compound 0.03162 µM) | relative viability (AT-7519 + Foretinib; first compound 0.3162 µM) | relative viability (AT-7519 + Foretinib; first compound 1 µM) | relative viability ([2]; first compound 0.08 µM) | relative viability ([2]; first compound 0.253 µM) | relative viability ([2]; first compound 0.8 µM) | relative viability ([2]; first compound 2.53 µM) | relative viability ([2]; first compound 8 µM) |
| --- | --- | --- | --- | --- | --- | --- | --- | --- | --- | --- | --- | --- | --- | --- | --- | --- | --- | --- |
| LXF-289 | 1.13 | 1.01 | 1.02 | 1.08 | 0.976 | 0.574 | 0.524 | 0.489 | 0.53 | 0.964 | 1 | 0.943 | 0.877 | 0.196 | 0.215 | 0.205 | 0.208 | 0.229 |
| NCI-H23 | 0.753 | 0.676 | 0.614 | 0.705 | 0.807 | 0.632 | 0.794 | 0.779 | 0.52 | 0.928 | 0.981 | 0.887 | 0.461 | 0.922 | 0.877 | 0.702 | 0.95 | 0.927 |
| NCI-H322M | 0.917 | 0.82 | 0.687 | 0.846 | 0.814 | 0.796 | 0.784 | 0.612 | 0.448 | 1.01 | 0.932 | 0.511 | 0.456 | 0.252 | 0.251 | 0.234 | 0.27 | 0.274 |
| NCI-H358 | 0.902 | 0.927 | 0.776 | 0.833 | 0.354 | 0.342 | 0.313 | 0.205 | 0.087 | 0.646 | 0.496 | 0.492 | 0.194 | 0.149 | 0.183 | 0.153 | 0.184 | 0.168 |
| NCI-H522 |  |  |  |  |  |  | 0.681 | 0.662 | 0.675 |  |  |  |  | 0.91 | 0.92 | 0.746 | 0.788 | 1.03 |
| NCI-H1299 | 0.985 | 1.04 | 1.01 | 0.997 | 1.05 |  |  |  |  | 1.13 | 1.06 | 1.1 | 1.15 |  |  |  |  |  |
| NCI-H1623 |  |  |  |  |  | 0.583 | 0.567 | 0.668 | 0.557 | 0.86 | 0.834 | 0.997 | 0.711 | 0.465 | 0.519 | 0.575 | 0.547 | 0.251 |
| NCI-H1650 |  |  |  |  |  | 0.466 | 0.427 | 0.292 | 0.15 | 1.15 | 1.12 | 0.914 | 0.295 | 0.34 | 0.315 | 0.338 | 0.332 | 0.227 |
| NCI-H1703 | 0.369 | 0.266 | 0.39 | 0.385 | 0.409 |  |  |  |  | 0.335 | 0.317 | 0.353 | 0.331 |  |  |  |  |  |
| NCI-H1792 | 0.861 | 0.639 | 0.66 | 0.715 | 0.743 | 0.208 | 0.22 | 0.315 | 0.163 |  |  |  |  | 0.772 | 0.669 | 0.458 | 0.84 | 0.835 |
| NCI-H2342 |  |  |  |  |  | 0.595 | 0.605 | 0.509 | 0.512 | 1.02 | 0.972 | 0.977 | 0.965 | 0.297 | 0.307 | 0.286 | 0.308 | 0.348 |
| SW 900 |  |  |  |  |  | 0.697 | 0.645 | 0.604 | 0.196 | 0.792 | 0.68 | 0.858 | 0.442 | 0.596 | 0.668 | 0.619 | 0.52 | 0.743 |
